System: 282377-053-R-J1-PDC complex spheroid viability
Experiment: Anticancer human tumor 282377-053-R-J1-PDC patient-derived colon adenocarcinoma cell line growth inhibition [POLQ]
Conditions: for IC50: curve of first compound; for viability, T/C: stronger effect = lower value
Procedure, shortened: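 Complex spheroid viability model combining PDC tumour cells with endothelial (HUVEC) and MSC stromal cells. Novobiocin, ART-558 or RP6685 were tested singly and in combination with standard and investigational anticancer drugs. Each was titrated in half-log steps from near clinical Cmax, or from 10 microM where Cmax was unknown.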

[1] = second compound 0.0316 µM, first compound 0.0316 µM
[2] = second compound 0.0316 µM, first compound 0.1 µM
[3] = second compound 0.1 µM, first compound 0.0316 µM
[4] = second compound 0.1 µM, first compound 0.1 µM
[5] = second compound 0.316 µM, first compound 0.0316 µM
[6] = second compound 0.316 µM, first compound 0.1 µM
[7] = second compound 1 µM, first compound 0.0316 µM
[8] = second compound 1 µM, first compound 0.1 µM
[9] = second compound 3.16 µM, first compound 0.0316 µM
[10] = second compound 3.16 µM, first compound 0.1 µM
[11] = second compound 10 µM, first compound 0.0316 µM
[12] = second compound 10 µM, first compound 0.1 µM
[13] = second compound 0.0316 µM, first compound 0.316 µM
[14] = second compound 0.0316 µM, first compound 1 µM
[15] = second compound 0.0316 µM, first compound 3.16 µM
[16] = second compound 0.0316 µM, first compound 10 µM
[17] = second compound 0.1 µM, first compound 0.316 µM
[18] = second compound 0.1 µM, first compound 1 µM
[19] = second compound 0.1 µM, first compound 3.16 µM
[20] = second compound 0.1 µM, first compound 10 µM
[21] = second compound 0.316 µM, first compound 0.316 µM
[22] = second compound 0.316 µM, first compound 1 µM
[23] = second compound 0.316 µM, first compound 3.16 µM
[24] = second compound 0.316 µM, first compound 10 µM
[25] = second compound 1 µM, first compound 0.316 µM
[26] = second compound 1 µM, first compound 1 µM
[27] = second compound 1 µM, first compound 3.16 µM
[28] = second compound 1 µM, first compound 10 µM
[29] = second compound 3.16 µM, first compound 0.316 µM
[30] = second compound 3.16 µM, first compound 1 µM
[31] = second compound 3.16 µM, first compound 3.16 µM
[32] = second compound 3.16 µM, first compound 10 µM
[33] = second compound 10 µM, first compound 0.316 µM
[34] = second compound 10 µM, first compound 1 µM
[35] = second compound 10 µM, first compound 3.16 µM
[36] = second compound 10 µM, first compound 10 µM
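Also: spheroids exposed to compounds for seven days.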
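For viability, T/C in this document: 100% = DMSO vehicle control viability.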

Cn1ncnc1[C@H]1c2n[nH]c(=O)c3cc(F)cc(c23)N[C@@H]1c1ccc(F)cc1 + COC1C(OC(N)=O)C(O)C(Oc2ccc3c(O)c(NC(=O)c4ccc(O)c(CC=C(C)C)c4)c(=O)oc3c2C)OC1(C)C
IC50 (second compound 0.0316 µM): > 100 nM
IC50 (second compound 0.1 µM): > 100 nM
IC50 (second compound 0.316 µM): > 100 nM
IC50 (second compound 1 µM): > 100 nM
IC50 (second compound 3.16 µM): > 100 nM
IC50 (second compound 10 µM): > 100 nM
viability, T/C (second compound 0.0316 µM, first compound 0.000316 µM): 126%
viability, T/C (second compound 0.0316 µM, first compound 0.001 µM): 108%
viability, T/C (second compound 0.0316 µM, first compound 0.00316 µM): 101%
viability, T/C (second compound 0.0316 µM, first compound 0.01 µM): 98.1%
viability, T/C [1]: 103%
viability, T/C [2]: 97.4%
viability, T/C (second compound 0.1 µM, first compound 0.000316 µM): 106%
viability, T/C (second compound 0.1 µM, first compound 0.001 µM): 122%
viability, T/C (second compound 0.1 µM, first compound 0.00316 µM): 92%
viability, T/C (second compound 0.1 µM, first compound 0.01 µM): 100%
viability, T/C [3]: 118%
viability, T/C [4]: 103%
viability, T/C (second compound 0.316 µM, first compound 0.000316 µM): 97.5%
viability, T/C (second compound 0.316 µM, first compound 0.001 µM): 81.7%
viability, T/C (second compound 0.316 µM, first compound 0.00316 µM): 85.4%
viability, T/C (second compound 0.316 µM, first compound 0.01 µM): 111%
viability, T/C [5]: 102%
viability, T/C [6]: 132%
viability, T/C (second compound 1 µM, first compound 0.000316 µM): 105%
viability, T/C (second compound 1 µM, first compound 0.001 µM): 111%
viability, T/C (second compound 1 µM, first compound 0.00316 µM): 111%
viability, T/C (second compound 1 µM, first compound 0.01 µM): 90.5%
viability, T/C [7]: 118%
viability, T/C [8]: 98.1%
viability, T/C (second compound 3.16 µM, first compound 0.000316 µM): 88.2%
viability, T/C (second compound 3.16 µM, first compound 0.001 µM): 106%
viability, T/C (second compound 3.16 µM, first compound 0.00316 µM): 92.1%
viability, T/C (second compound 3.16 µM, first compound 0.01 µM): 99.5%
viability, T/C [9]: 107%
viability, T/C [10]: 126%
viability, T/C (second compound 10 µM, first compound 0.000316 µM): 112%
viability, T/C (second compound 10 µM, first compound 0.001 µM): 98.5%
viability, T/C (second compound 10 µM, first compound 0.00316 µM): 104%
viability, T/C (second compound 10 µM, first compound 0.01 µM): 102%
viability, T/C [11]: 105%
viability, T/C [12]: 105%

CCCS(=O)(=O)Nc1ccc(F)c(C(=O)c2c[nH]c3ncc(-c4ccc(Cl)cc4)cc23)c1F + Cc1cccc(N(C)C(=O)C2C(O)CCN2c2nc(C)cc(C(F)(F)F)c2C#N)c1
IC50 (second compound 0.0316 µM): > 10000 nM
IC50 (second compound 0.1 µM): > 10000 nM
IC50 (second compound 0.316 µM): > 10000 nM
IC50 (second compound 1 µM): > 10000 nM
IC50 (second compound 3.16 µM): > 10000 nM
IC50 (second compound 10 µM): > 10000 nM
viability, T/C [1]: 95.1%
viability, T/C [2]: 77.8%
viability, T/C [13]: 73.6%
viability, T/C [14]: 67.4%
viability, T/C [15]: 76.2%
viability, T/C [16]: 64.3%
viability, T/C [3]: 91.8%
viability, T/C [4]: 88.4%
viability, T/C [17]: 66.3%
viability, T/C [18]: 73.2%
viability, T/C [19]: 75.7%
viability, T/C [20]: 69.7%
viability, T/C [5]: 92.5%
viability, T/C [6]: 85.6%
viability, T/C [21]: 73%
viability, T/C [22]: 77.5%
viability, T/C [23]: 70%
viability, T/C [24]: 61.8%
viability, T/C [7]: 86.9%
viability, T/C [8]: 91.9%
viability, T/C [25]: 90.5%
viability, T/C [26]: 70.3%
viability, T/C [27]: 68%
viability, T/C [28]: 61.4%
viability, T/C [9]: 92.1%
viability, T/C [10]: 92.9%
viability, T/C [29]: 72.1%
viability, T/C [30]: 64.3%
viability, T/C [31]: 61.5%
viability, T/C [32]: 65%
viability, T/C [11]: 81.6%
viability, T/C [12]: 81.2%
viability, T/C [33]: 77.1%
viability, T/C [34]: 62.8%
viability, T/C [35]: 73.5%
viability, T/C [36]: 58.4%

CC1COCCN1c1cc(C2(O)CC3CCC(C2)O3)c2cnn(-c3ccn[nH]3)c2n1 (stereo not drawn) + Cc1cccc(N(C)C(=O)C2C(O)CCN2c2nc(C)cc(C(F)(F)F)c2C#N)c1
IC50 (second compound 0.0316 µM): 524 nM
IC50 (second compound 0.1 µM): 300 nM
IC50 (second compound 0.316 µM): 242 nM
IC50 (second compound 1 µM): 489 nM
IC50 (second compound 3.16 µM): 230 nM
IC50 (second compound 10 µM): 302 nM
viability, T/C [1]: 106%
viability, T/C [2]: 74.9%
viability, T/C [13]: 67.9%
viability, T/C [14]: 33%
viability, T/C [15]: 25.5%
viability, T/C [16]: 16.7%
viability, T/C [3]: 83.8%
viability, T/C [4]: 83.6%
viability, T/C [17]: 48.4%
viability, T/C [18]: 28.1%
viability, T/C [19]: 30.4%
viability, T/C [20]: 21.9%
viability, T/C [5]: 78.9%
viability, T/C [6]: 68.3%
viability, T/C [21]: 44.6%
viability, T/C [22]: 27.3%
viability, T/C [23]: 29.2%
viability, T/C [24]: 19.8%
viability, T/C [7]: 80.7%
viability, T/C [8]: 79.2%
viability, T/C [25]: 54%
viability, T/C [26]: 37.2%
viability, T/C [27]: 27%
viability, T/C [28]: 13.9%
viability, T/C [9]: 78.7%
viability, T/C [10]: 55.2%
viability, T/C [29]: 49%
viability, T/C [30]: 30%
viability, T/C [31]: 31.2%
viability, T/C [32]: 13.6%
viability, T/C [11]: 76%
viability, T/C [12]: 66.1%
viability, T/C [33]: 49.2%
viability, T/C [34]: 30.9%
viability, T/C [35]: 31.6%
viability, T/C [36]: 14.4%

C=CC(=O)N1CCN(c2nc(=O)n(-c3c(C)ccnc3C(C)C)c3nc(-c4c(O)cccc4F)c(F)cc23)C(C)C1 (stereo not drawn) + Cc1cccc(N(C)C(=O)C2C(O)CCN2c2nc(C)cc(C(F)(F)F)c2C#N)c1
IC50 (second compound 0.0316 µM): > 10000 nM
IC50 (second compound 0.1 µM): > 10000 nM
IC50 (second compound 0.316 µM): > 10000 nM
IC50 (second compound 1 µM): > 10000 nM
IC50 (second compound 3.16 µM): > 10000 nM
IC50 (second compound 10 µM): > 10000 nM
viability, T/C [1]: 94.8%
viability, T/C [2]: 84.6%
viability, T/C [13]: 119%
viability, T/C [14]: 89.3%
viability, T/C [15]: 97.3%
viability, T/C [16]: 80.5%
viability, T/C [3]: 102%
viability, T/C [4]: 108%
viability, T/C [17]: 93.4%
viability, T/C [18]: 83.5%
viability, T/C [19]: 90.4%
viability, T/C [20]: 88.7%
viability, T/C [5]: 91.2%
viability, T/C [6]: 106%
viability, T/C [21]: 106%
viability, T/C [22]: 89.4%
viability, T/C [23]: 74.1%
viability, T/C [24]: 79.3%
viability, T/C [7]: 79.2%
viability, T/C [8]: 92.7%
viability, T/C [25]: 89%
viability, T/C [26]: 80.8%
viability, T/C [27]: 85.7%
viability, T/C [28]: 76.6%
viability, T/C [9]: 88.5%
viability, T/C [10]: 99%
viability, T/C [29]: 71.9%
viability, T/C [30]: 88.5%
viability, T/C [31]: 84%
viability, T/C [32]: 89.4%
viability, T/C [11]: 76.7%
viability, T/C [12]: 80.8%
viability, T/C [33]: 89.7%
viability, T/C [34]: 86.8%
viability, T/C [35]: 85.8%
viability, T/C [36]: 70.7%
